Earlier results in US9364479B2, “Use of a receptor-type kinase modulator for treating polycystic kidney disease” (SYMPHONY EVOLUTION, INC., priority 2010, dated 2016).

Tests used:
PKD model = details: in vivo; cited from earlier work
bpk mice or PCK rat = details: cited from earlier work
bpk mice = details: cited from earlier work

CCOc1cc2ncc(C#N)c(Nc3ccc(F)c(Cl)c3)c2cc1NC(=O)/C=C/CN(C)C [EKB-569]
cyst formation and renal function, in words (PKD model): effective in reducing cyst formation and maintaining normal renal function

COc1cc(Nc2c(C#N)cnc3cc(OCCCN4CCN(C)CC4)c(OC)cc23)c(Cl)cc1Cl [SKI-606]
renal cyst formation and biliary duct abnormalities, in words (bpk mice or PCK rat): ameliorated renal cyst formation and biliary duct abnormalities

CC#CC(=O)Nc1ccc2ncnc(Nc3cccc(Br)c3)c2c1 [EKI-785]
progression of PKD, in words (bpk mice): effective in preventing the progression of PKD
